Marks after values point to notes of the source that are not given here.
How the values were obtained:
[1] = tested on: heart; assay: Histopathological examination of the heart; format: in vivo; conditions: rats, two weeks administration, H&E stain
Description: (§1) Eighteen rats were divided into three groups at random (6 animals in each group). The first group was given a vehicle and served as normal control. […] Ketamine (100 mg/kg) was used to anaesthetise the animals on the 15th day. Blood samples were obtained from the retro orbital, allowed to clot, centrifuged at 1000 g for 15 min, and utilised to examine heart function biomarkers (LDH, CK-MB, and troponin). The abdomen of each rat was opened, and the heart was extracted and washed in ice-cold physiological saline before being harnessed for histological investigation.

[2] = Dissolution of DPPH samples in DMSO/methanol; format: physicochemical; conditions: DPPH sample preparation, methanol: DMSO 9:1 v/v
Description: (§2) Preparation of samples was occurred at the following concentrations: Samples 3a, 4a, 5b, 5d and 5e at final concentrations of 0.5 mg/ml in methanol: DMSO 9:1 v/v. Samples 4b and 4d at final concentrations 0.025 mg/ml in methanol: DMSO 9:1 v/v, sample 5a at final concentrations 0.25 mg/ml in methanol: DMSO 9:1 v/v, Sample 4c, 5c and 4e at final concentrations 0.05 mg/ml in methanol: DMSO 9:1 v/v, sample 3b at final concentration 0.75 mg/ml methanol: DMSO 9:1 v/v. A stock solution of 100 µM concentration of Trolox, a standard used in this experiment, was prepared in methanol from which seven concentrations were prepared, including 50, 40, 30, 20, 15, 10 and 5 µM.

[3] = target: T1, ovine COX-1 (Ovis aries, UniProt P05979); assay: COX-1 inhibition, enzyme immune assay (EIA) kit
T1 sequence (P05979 25-600): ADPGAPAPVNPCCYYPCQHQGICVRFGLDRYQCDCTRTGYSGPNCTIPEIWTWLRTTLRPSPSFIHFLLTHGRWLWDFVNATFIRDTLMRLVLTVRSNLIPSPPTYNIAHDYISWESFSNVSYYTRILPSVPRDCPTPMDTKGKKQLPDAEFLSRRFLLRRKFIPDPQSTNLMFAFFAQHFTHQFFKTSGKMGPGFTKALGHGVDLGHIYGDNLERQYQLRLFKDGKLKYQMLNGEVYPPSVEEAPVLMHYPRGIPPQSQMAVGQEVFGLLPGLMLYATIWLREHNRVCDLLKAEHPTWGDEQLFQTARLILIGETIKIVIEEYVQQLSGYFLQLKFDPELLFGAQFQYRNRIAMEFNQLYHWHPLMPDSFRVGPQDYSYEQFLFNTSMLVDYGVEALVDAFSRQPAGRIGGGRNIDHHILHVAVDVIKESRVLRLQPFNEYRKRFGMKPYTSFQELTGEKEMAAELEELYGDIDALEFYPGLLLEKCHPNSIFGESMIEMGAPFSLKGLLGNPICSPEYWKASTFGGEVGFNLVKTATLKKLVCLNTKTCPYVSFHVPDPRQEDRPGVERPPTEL
Description: Colorimetric enzyme immunoassay (EIA) kits were done to screen for the isozyme-specific inhibition.

[4] = tested on: heart function biomarkers (LDH, CK-MB, and troponin); assay: Cardiac function biomarkers in rat serum; format: in vivo, rats; conditions: 50 mg/kg/day p.o. for 2 weeks, mean ± SEM
Description: as §1

[5] = tested on: Salmonella enterica (ATCC 14028); assay: Disc diffusion antimicrobial screening, Salmonella enterica; format: cell-based; conditions: 100 µg/disc
Description: All compounds were screened for their antimicrobial activity at the Microbiology and Immunology Department, Faculty of Pharmacy, Beni-Suef University. The antimicrobial activity screening was carried out using the disc diffusion method, as described earlier, with some adjustments.
For each indicator microbe, a solution of half McFarland turbidity was prepared in sterile saline, followed by surface streaking of the strains on Mueller-Hinton agar with a sterile cotton swab. Then, sterile filter paper discs (5 mm diameter) preloaded with 100 µg of each compound were applied to the surface of the pre-inoculated plates. Then, the plates were chilled at 4 °C for 100 min before being incubated overnight at the proper temperature for microbial growth. Finally, the diameter of the inhibition zones around each disc was measured to evaluate the antimicrobial activity of the compounds. Ciprofloxacin was used as a standard antibacterial agent at a concentration of 20 µg/disc. Furthermore, DMSO-loaded discs were used as a negative control.

[6] = DPPH free radical assay; format: biochemical; conditions: 540 nm, 30 min, relative to Trolox
Description: as §2
The DPPH (2,2-diphenyl-1-picryl-hydrazyl-hydrate) free radical assay was carried out according to the method of Boly et al. 2016[39]. Briefly, freshly prepared DPPH reagent (100 µl, 0.1% in methanol) was added to 100 µl of the sample on 96 well plates (n = 6). The reaction was incubated at room temp for 30 min in the dark. After completion of the incubation time, the reduction in DPPH colour intensity was measured at 540 nm. Data obtained was represented as means ± SD, according to the following equation, percentage inhibition = [(Average absorbance of blank – average absorbance of the test)/(Average absorbance of blank)] *100. The results were recorded using a microplate reader, FluoStar Omega.
Microsoft Excel® was used to analyse the obtained results. The IC50 values were calculated using Graph pad Prism 6® by converting the concentrations to their logarithmic value and selecting the non-linear inhibitor regression equation (log (inhibitor) vs. normalised response – variable slope equation). The methods used and the final test report (R-SO7320) were obtained from Nawah Scientific.

Structure (SMILES) | heart histopathology finding [1] | solubility of sample in DMSO and methanol [2] | IC50 ([3]; IC50 COX1, lab report / text printing uM) | IC50 ([3]; IC50 COX-1) | COX1 %inh ([3]; conc 0.1 (μM)) | COX1 %inh ([3]; conc 1 (μM)) | COX1 %inh ([3]; conc 10 (μM)) | COX1 %inh ([3]; conc 100 (μM)) | CK-MB [4] | LDH [4] | Troponin I [4] | antibacterial activity against Salmonella enterica [5] | DPPH test results (µM trolox equivalent/ 1mg sample ± SD) [6]
Cc1ccc(N2C(=O)CSC2=NN=Cc2cn(S(C)(=O)=O)c3ccccc23)cc1 [Compound 5d] | little or no toxic effects on the heart | didn’t dissolve in DMSO nor in methanol | 5.79 ± 0.16 µM | 5.79 ± 0.16 µM | 8.83% | 27.6% | 53.7% | 83.6% | 0.315 ± 0.035^a,b ng/ml | 536 ± 28^a,b U/L | 0.0015 ± 0.0005^b ng/ml |  | 
COc1ccc(NC(=S)N/N=C/c2cn(S(C)(=O)=O)c3ccccc23)cc1 [Compound 4e, (E)-N-(4-Methoxyphenyl)-2{[1-(methylsulfonyl)-1H-indol 3yl]methylene}hydrazinecarbothioamide] |  |  |  | 24.7 ± 0.7 µM | 5.87% | 14.4% | 28.6% | 73.5% |  |  |  | selective antibacterial activity | 161.21 ± 7.98 µM trolox equivalent/ 1mg sample

Source: article PMC9721424, “Novel N-methylsulfonyl-indole derivatives: biological activity and COX-2/5-LOX inhibitory effect with improved gastro protective profile and reduced cardio vascular risks” (Journal of Enzyme Inhibition and Medicinal Chemistry, 2022)
